Experimental data: publication doi:10.1101/2023.03.03.530471v2 (bioRxiv, 2023)

Experiments:
naive mice = experiment: Barnes maze, spatial learning and memory; type: in vivo, mouse
[1] = target: recombinant full length PICK1 (Rattus norvegicus, UniProt Q9EP80); experiment: SEC of recombinant PICK1 incubated with mPD5; type: binding; conditions: PICK1 40 µM + mPD5 10 µM (4:1), Superdex200 Increase 10/300; PICK1 alone 10.9 mL
[2] = Solubility by visual inspection; type: physicochemical; conditions: 10 mM PBS, molar equivalent of 250 mg/mL

Chain of recombinant full length PICK1 (Q9EP80 whole entry): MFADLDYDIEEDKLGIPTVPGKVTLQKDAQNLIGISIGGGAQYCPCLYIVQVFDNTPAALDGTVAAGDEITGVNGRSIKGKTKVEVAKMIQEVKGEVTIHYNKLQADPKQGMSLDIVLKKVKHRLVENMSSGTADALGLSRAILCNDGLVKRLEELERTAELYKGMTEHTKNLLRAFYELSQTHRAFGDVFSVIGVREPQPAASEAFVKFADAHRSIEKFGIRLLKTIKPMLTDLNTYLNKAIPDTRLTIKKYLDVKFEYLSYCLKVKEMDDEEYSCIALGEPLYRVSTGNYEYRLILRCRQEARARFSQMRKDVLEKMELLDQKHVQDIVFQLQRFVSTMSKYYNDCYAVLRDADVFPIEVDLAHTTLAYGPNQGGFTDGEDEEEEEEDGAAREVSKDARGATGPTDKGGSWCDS

Which “total distance moved, probe test day five” value (naive mice; s.c. 10 µmol/kg 60 min before maze) does the source give for `CCCCCCCCCCCCCC(=O)N(CCOCCOCCC(=O)N[C@@H](Cc1c[nH]cn1)C(=O)N[C@@H](Cc1c[nH]c2ccccc12)C(=O)N[C@@H](CC(C)C)C(=O)N[C@@H](CCCCN)C(=O)N[C@H](C(=O)O)C(C)C)CCOCCOCCC(=O)N[C@@H](Cc1c[nH]cn1)C(=O)N[C@@H](Cc1c[nH]c2ccccc12)C(=O)N[C@@H](CC(C)C)C(=O)N[C@@H](CCCCN)C(=O)N[C@H](C(=O)O)C(C)C` [mPD5, myristoyl-NPEG4-(HWLKV)2] here?
Its value is “no difference”.

What about the “total distance moved, following reversal learning” value (naive mice; s.c. 10 µmol/kg, probe test day nine) of the same compound?
Its value is “no difference was observed”.

And the “peak elution volume of PICK1 in presence of mPD5” value [1]?
The value was “two peaks at 8 mL and 9 mL”.

What about the “solubility in PBS” value [2] of the same compound?
The value was no less than 130 mM.
